Measured values as given in ChEMBL document CHEMBL5154936, “Scaffold Hopping Strategy to Identify Prostanoid EP4 Receptor Antagonists for Cancer Immunotherapy” (J Med Chem, 2022).

Columns and labels:
[1] = target: Prostaglandin E2 receptor EP2 subtype (Homo sapiens, UniProt P43116); assay: Antagonist activity at human EP2 receptor transfected in CHO/Galpha16 cells preincubated for 15 mins followed by PGE2 addition by calcium flux assay; type: functional, cell-based
[2] = Cmax in BALB/c mouse at 5 mg/kg, po measured upto 24 hrs by LC-MS/MS analysis; type: ADME, organism-based; design: dose 5 mg/kg, time < 24 hrs, route po; settings: in vivo
[3] = Metabolic stability in human liver microsomes assessed as intrinsic clearance; type: ADME, Microsome; settings: read-out: CLH
[4] = Oral bioavailability in BALB/c mouse at 5 mg/kg measured upto 24 hrs by LC-MS/MS analysis; type: ADME, organism-based; settings: in vivo
[5] = AUC (0 to 24 hrs) in BALB/c mouse at 5 mg/kg, po measured upto 24 hrs by LC-MS/MS analysis; type: ADME, organism-based; design: dose 5 mg/kg, time < 24 hrs, route po; settings: in vivo
[6] = test system: CT26; assay: Antitumor activity against mouse CT26 cells allografted in BALB/c mouse assessed as median survival period at 75 mg/kg, po administered once a day for 14 days by Kaplan-Meier method (reference value: 15 days); type: functional; settings: time 14 day
[7] = Toxicity in BALB/c mouse allografted with mouse CT26 cells assessed as change in body weight at 75 mg/kg, po administered once a day measured after 14 days; type: organism-based; settings: in vivo, 336 h, time 14 day
[8] = AUC (0 to 24 hrs) in BALB/c mouse at 1 mg/kg, iv measured upto 24 hrs by LC-MS/MS analysis; type: ADME, organism-based; design: dose 1 mg/kg, time < 24 hrs, route iv; settings: in vivo
[9] = Toxicity in BALB/c mouse allografted with mouse CT26 cells assessed as change in body weight at 75 mg/kg, po administered once a day for 14 days in presence of anti-PD-1 antibody; type: organism-based; settings: in vivo, 336 h, time 14 day
[10] = AUC (0 to infinity) in BALB/c mouse at 5 mg/kg, po measured upto 24 hrs by LC-MS/MS analysis; type: ADME, organism-based; design: dose 5 mg/kg, time < 24 hrs, route po; settings: in vivo
[11] = Volume of distribution at steady state in BALB/c mouse at 5 mg/kg, po measured upto 24 hrs by LC-MS/MS analysis; type: ADME, organism-based; settings: in vivo
[12] = Volume of distribution at steady state in BALB/c mouse at 1 mg/kg, iv measured upto 24 hrs by LC-MS/MS analysis; type: ADME, organism-based; settings: in vivo, read-out: Vdss
[13] = test system: CT26; assay: Antitumor activity against mouse CT26 cells allografted in BALB/c mouse assessed as median survival period at 75 mg/kg, po administered once a day for 14 days in presence of anti-PD-1 antibody by Kaplan-Meier method (reference value: 15 days); type: functional; settings: time 14 day
[14] = target: CYP2E1 (Homo sapiens, UniProt P05181); assay: Inhibition of CYP2E1 (unknown origin) at 20 uM; type: ADME
Sequence of CYP2E1 (P05181 whole entry): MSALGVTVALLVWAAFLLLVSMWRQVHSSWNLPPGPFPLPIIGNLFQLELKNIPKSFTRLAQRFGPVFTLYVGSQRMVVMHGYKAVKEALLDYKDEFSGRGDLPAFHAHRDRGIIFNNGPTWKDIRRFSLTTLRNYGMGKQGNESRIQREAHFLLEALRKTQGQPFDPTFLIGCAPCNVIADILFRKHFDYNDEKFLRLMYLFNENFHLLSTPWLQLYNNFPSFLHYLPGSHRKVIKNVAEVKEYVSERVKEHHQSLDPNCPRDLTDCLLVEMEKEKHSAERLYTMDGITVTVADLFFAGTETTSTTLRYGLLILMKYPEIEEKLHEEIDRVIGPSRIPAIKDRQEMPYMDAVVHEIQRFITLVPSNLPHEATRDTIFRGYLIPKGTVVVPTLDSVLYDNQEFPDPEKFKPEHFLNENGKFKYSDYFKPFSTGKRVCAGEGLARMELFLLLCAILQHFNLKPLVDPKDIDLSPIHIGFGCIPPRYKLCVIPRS

[15] = target: CYP2D6 (Homo sapiens, UniProt P10635); assay: Inhibition of CYP2D6 (unknown origin) at 20 uM; type: ADME
Sequence of CYP2D6 (P10635 whole entry): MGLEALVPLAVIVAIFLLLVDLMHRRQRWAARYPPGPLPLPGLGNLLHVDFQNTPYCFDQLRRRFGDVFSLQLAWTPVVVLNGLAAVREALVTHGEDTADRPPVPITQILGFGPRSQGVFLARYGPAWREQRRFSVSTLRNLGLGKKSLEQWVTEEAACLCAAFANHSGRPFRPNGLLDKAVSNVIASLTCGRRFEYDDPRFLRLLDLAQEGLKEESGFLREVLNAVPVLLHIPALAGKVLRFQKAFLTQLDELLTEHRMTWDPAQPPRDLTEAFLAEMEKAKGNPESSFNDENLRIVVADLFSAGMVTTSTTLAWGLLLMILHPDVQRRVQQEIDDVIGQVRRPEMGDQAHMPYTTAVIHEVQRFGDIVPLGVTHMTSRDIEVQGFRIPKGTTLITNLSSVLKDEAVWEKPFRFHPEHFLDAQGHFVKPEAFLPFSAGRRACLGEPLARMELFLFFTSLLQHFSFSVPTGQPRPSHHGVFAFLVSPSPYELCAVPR

[16] = test system: Panc02; assay: Cytotoxicity against mouse Panc02 cells assessed as reduction in cell viability incubated for 72 hrs by CCK-8 assay; settings: Panc02, 72 h
[17] = Cytotoxicity against HEK293 cells assessed as reduction in cell viability incubated for 72 hrs by CCK-8 assay; type: toxicity, cell-based; settings: human
[18] = test system: EMT6; assay: Cytotoxicity against mouse EMT6 cells assessed as reduction in cell viability incubated for 72 hrs by CCK-8 assay; settings: EMT6, 72 h
[19] = test system: 3LL cell line; assay: Cytotoxicity against mouse 3LL cells assessed as reduction in cell viability incubated for 72 hrs by CCK-8 assay
[20] = target: Prostaglandin E2 receptor EP4 subtype (Homo sapiens, UniProt P35408); assay: Antagonist activity at human EP4 receptor transfected in CHO/Galpha16 cells preincubated for 15 mins followed by PGE2 addition by calcium flux assay; type: functional, cell-based
Sequence of Prostaglandin E2 receptor EP4 subtype (P35408 whole entry): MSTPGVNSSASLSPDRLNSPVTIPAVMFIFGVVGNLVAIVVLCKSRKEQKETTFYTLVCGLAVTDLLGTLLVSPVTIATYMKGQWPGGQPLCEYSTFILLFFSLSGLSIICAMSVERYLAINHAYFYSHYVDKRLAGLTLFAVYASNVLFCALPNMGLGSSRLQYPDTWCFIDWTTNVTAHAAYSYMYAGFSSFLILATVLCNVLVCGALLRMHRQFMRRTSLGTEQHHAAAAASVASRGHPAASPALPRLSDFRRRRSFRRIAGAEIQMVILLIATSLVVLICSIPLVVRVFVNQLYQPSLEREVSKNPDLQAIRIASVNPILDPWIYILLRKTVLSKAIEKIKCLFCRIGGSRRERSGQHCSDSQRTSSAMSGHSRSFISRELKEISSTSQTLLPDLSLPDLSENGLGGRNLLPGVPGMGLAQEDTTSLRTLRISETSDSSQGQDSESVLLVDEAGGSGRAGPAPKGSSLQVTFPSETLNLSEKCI

[21] = test system: CT26; assay: Cytotoxicity against mouse CT26 cells assessed as reduction in cell viability incubated for 72 hrs by CCK-8 assay; settings: CT26, 72 h

Sequence of Prostaglandin E2 receptor EP2 subtype (P43116 whole entry): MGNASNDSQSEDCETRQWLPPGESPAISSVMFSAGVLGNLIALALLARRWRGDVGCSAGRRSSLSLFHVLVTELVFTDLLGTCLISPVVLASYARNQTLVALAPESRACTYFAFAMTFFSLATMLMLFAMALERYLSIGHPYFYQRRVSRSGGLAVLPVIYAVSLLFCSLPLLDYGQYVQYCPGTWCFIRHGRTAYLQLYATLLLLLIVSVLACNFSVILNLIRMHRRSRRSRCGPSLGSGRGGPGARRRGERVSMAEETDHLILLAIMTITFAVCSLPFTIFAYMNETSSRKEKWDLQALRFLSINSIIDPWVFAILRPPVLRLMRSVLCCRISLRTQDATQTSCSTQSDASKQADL

Compound	IC50 [1] [µM]	Cmax [2] [ng/mL]	microsomal CLint [3] [µL/min/mg]	bioavailability [4] [%]	AUC(0-t) at 24 h [5] [ng·h/mL]	AUC(0-t) at 24 h [8] [ng·h/mL]	AUC(0-inf) [10] [ng·h/mL]	Vdss [11] [L/kg]	Vd [12] [L/kg]	inhibition at 20 µM [14] [%]	inhibition at 20 µM [15] [%]	further results
O=C(O)c1ccc(CNC(=O)c2c(Cc3ccc(F)cc3)sc3c2CCOC3)cc1	> 10	982	< 9.6	61.4	2100	684	2220	21.0327	6.14	31	65	MST [6]: 26 days; Activity [7]: Non-Toxic; Activity [9]: Non-Toxic; MST [13]: 41 days
C[C@H](NC(=O)c1c(Cc2cccc(C(F)(F)F)c2)sc2c1CCOC2)c1ccc(C(=O)O)cc1	> 10	664	< 9.6	52.3	1680	642	1690	14.5274	7.39	23	72	IC50 [16]: > 100 µM; IC50 at 72 h [17]: > 100 µM; IC50 [18]: > 100 µM; IC50 [19]: > 100 µM; IC50 [20]: 0.0017 µM; IC50 [21]: > 100 µM
